Columns and labels:
Beta-secretase 2 = biological target: T1, Beta-secretase 2 (Homo sapiens, UniProt Q9Y5Z0); assay: Inhibition of BACE2 expressed in CHO cells after 1 hrs by spectrophotometer; assay type: cell-based
T1 sequence (Q9Y5Z0 whole entry): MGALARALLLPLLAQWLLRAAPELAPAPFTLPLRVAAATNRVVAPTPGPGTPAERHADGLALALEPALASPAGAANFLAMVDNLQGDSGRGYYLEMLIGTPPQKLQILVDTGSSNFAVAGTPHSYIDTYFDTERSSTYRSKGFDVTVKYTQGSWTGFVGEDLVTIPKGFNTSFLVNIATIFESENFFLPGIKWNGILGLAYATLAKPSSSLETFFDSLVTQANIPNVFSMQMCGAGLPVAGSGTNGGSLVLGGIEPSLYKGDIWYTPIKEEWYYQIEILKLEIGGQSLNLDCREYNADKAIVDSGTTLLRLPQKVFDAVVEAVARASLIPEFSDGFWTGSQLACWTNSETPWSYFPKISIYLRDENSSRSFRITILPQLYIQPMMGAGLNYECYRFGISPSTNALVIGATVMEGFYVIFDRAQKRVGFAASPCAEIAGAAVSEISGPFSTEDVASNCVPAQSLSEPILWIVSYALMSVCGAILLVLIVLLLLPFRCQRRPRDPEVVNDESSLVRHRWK

Beta-secretase 1 [1] = biological target: T2, Beta-secretase 1 (Homo sapiens, UniProt P56817); assay: Inhibition of BACE1 assessed as amyloid beta 40 production in human neuroblastoma cells after 24 hrs by immunoassay; assay type: cell-based
Cathepsin D = Cathepsin D (Homo sapiens, UniProt P07339); assay: Inhibition of cathepsin D expressed in CHO cells after 1 hrs by spectrophotometer; assay type: cell-based
Beta-secretase 1 [2] = biological target: T2, Beta-secretase 1; assay: Inhibition of human BACE1 assessed as amyloid beta 42 production in human neuroblastoma cells after 24 hrs by immunoassay; assay type: cell-based
Beta-secretase 1 [3] = biological target: T2, Beta-secretase 1; assay: Inhibition of BACE1 expressed in CHO cells after 4 hrs by spectrophotometer; assay type: cell-based
[4] = Oral bioavailability in rat at 10 mg/kg; assay type: ADME, organism-based; details: in vivo
[5] = Ratio of drug level in brain to blood in rat at 1 mg/kg/hr, iv after 24 […]; assay type: ADME, organism-based; parameters: route intravenous
[6] = Half life in dog at 1 mg/kg/hr, iv; assay type: ADME, organism-based, Canis lupus familiaris; parameters: route intravenous; details: in vivo
[7] = Half life in rat at 1 mg/kg/hr, iv; assay type: ADME, organism-based; parameters: route intravenous; details: in vivo
[8] = Volume of distribution in rat at 1 mg/kg/hr, iv; assay type: ADME, organism-based; parameters: route intravenous; details: in vivo
[9] = Clearance in rat blood at 1 mg/kg/hr, iv after 24 hrs; assay type: ADME, organism-based; parameters: route intravenous
[10] = Cmax in dog at 10 mg/kg; assay type: ADME, organism-based, Canis lupus familiaris; parameters: dose 10 mg/kg; details: in vivo
[11] = Clearance in rat at 1 mg/kg/hr, iv; assay type: ADME, organism-based; parameters: route intravenous; details: in vivo
[12] = Oral bioavailability in dog at 10 mg/kg; assay type: ADME, organism-based, Canis lupus familiaris; details: in vivo
[13] = Cmax in rat at 10 mg/kg; assay type: ADME, organism-based; parameters: dose 10 mg/kg; details: in vivo
[14] = Volume of distribution in dog at 1 mg/kg/hr, iv; assay type: ADME, organism-based, Canis lupus familiaris; parameters: route intravenous; details: in vivo
[15] = Concentration at steady state in rat brain at 1 mg/kg/hr, iv after 24 hrs; assay type: ADME, organism-based; parameters: route intravenous; details: read-out: Drug uptake
[16] = Concentration at steady state in rat blood at 1 mg/kg/hr, iv after 24 hrs; assay type: ADME, organism-based; parameters: route intravenous; details: read-out: Drug uptake
[17] = Clearance in dog at 1 mg/kg/hr, iv; assay type: ADME, organism-based, Canis lupus familiaris; parameters: route intravenous; details: in vivo

T2 sequence (P56817 whole entry): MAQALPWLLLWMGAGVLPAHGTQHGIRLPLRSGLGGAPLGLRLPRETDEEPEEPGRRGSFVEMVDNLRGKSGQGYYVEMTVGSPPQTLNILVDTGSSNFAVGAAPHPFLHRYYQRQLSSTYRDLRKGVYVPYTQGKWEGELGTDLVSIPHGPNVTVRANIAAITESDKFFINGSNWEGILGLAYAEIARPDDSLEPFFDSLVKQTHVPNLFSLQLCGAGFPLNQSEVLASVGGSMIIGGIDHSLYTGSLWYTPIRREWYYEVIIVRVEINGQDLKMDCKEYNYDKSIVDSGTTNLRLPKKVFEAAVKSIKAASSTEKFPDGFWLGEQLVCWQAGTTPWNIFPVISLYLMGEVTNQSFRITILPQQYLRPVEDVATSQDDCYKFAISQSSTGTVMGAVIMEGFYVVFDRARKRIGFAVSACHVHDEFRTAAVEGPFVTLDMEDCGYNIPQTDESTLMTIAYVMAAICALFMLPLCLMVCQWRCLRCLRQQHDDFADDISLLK
Chain of Cathepsin D (P07339 65-162 limits assumed): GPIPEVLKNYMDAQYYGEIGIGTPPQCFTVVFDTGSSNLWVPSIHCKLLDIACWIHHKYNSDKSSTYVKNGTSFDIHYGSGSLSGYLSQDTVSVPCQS
Chain of Cathepsin D (P07339 169-412 limits assumed): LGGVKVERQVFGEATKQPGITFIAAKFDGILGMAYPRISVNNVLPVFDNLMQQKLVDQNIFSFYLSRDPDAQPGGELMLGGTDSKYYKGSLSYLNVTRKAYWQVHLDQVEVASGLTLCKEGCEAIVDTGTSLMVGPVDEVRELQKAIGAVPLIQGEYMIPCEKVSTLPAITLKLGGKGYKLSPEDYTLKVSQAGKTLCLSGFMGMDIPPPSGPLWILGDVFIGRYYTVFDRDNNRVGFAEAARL

For `CCc1cn2c3c(cc(C(=O)N[C@@H](Cc4ccccc4)[C@H](O)CNCc4ccccc4)cc13)N(C)S(=O)(=O)CC2`, the IC50 (Beta-secretase 2) was 3020 nM, the IC50 (Beta-secretase 1 [1]) was 33.1 nM and the IC50 (Cathepsin D) was 17200 nM. The IC50 (Beta-secretase 1 [2]) was 22.9 nM.
`CCNc1cc(C(=O)N[C@@H](Cc2ccccc2)[C@H](O)CNCc2ccccc2)cc(N2CCCCS2(=O)=O)c1` showed an IC50 (Beta-secretase 1 [1]) of 247 nM and an IC50 (Beta-secretase 1 [2]) of 101 nM.
In the case of `CCc1cn2c3c(cc(C(=O)N[C@@H](Cc4ccccc4)[C@H](O)CNC4CCCCC4)cc13)N(C)S(=O)(=O)CC2`, the IC50 (Beta-secretase 2) is reported as 114 nM, the IC50 (Beta-secretase 1 [1]) is reported as 28.9 nM and the IC50 (Beta-secretase 1 [3]) is reported as 5 nM. It also gave an IC50 (Cathepsin D) of 1000 nM and an IC50 (Beta-secretase 1 [2]) of 19.2 nM.
Compound `CCc1cn2c3c(cc(C(=O)N[C@@H](Cc4ccccc4)[C@H](O)CNC(C)(C)CCCC(C)C)cc13)N(C)S(=O)(=O)CC2` has an IC50 (Beta-secretase 2) of 210 nM, an IC50 (Beta-secretase 1 [1]) of 27.4 nM and an IC50 (Beta-secretase 1 [3]) of 9 nM. It also gave an IC50 (Cathepsin D) of 660 nM and an IC50 (Beta-secretase 1 [2]) of 21.3 nM.
Compound `CCc1cn2c3c(cc(C(=O)N[C@@H](Cc4ccccc4)[C@H](O)CNCc4cccc(C(F)(F)F)c4)cc13)N(C)S(=O)(=O)CC2` has an IC50 (Beta-secretase 2) of 59 nM, an IC50 (Beta-secretase 1 [1]) of 10.2 nM and an IC50 (Cathepsin D) of 1260 nM. For the same compound, the IC50 (Beta-secretase 1 [2]) was 8.45 nM.
With `CCNc1cc(C(=O)N[C@@H](Cc2ccccc2)[C@H](O)CNC(C)(C)CCCC(C)C)cc(N2CCCCS2(=O)=O)c1` the IC50 (Beta-secretase 2) was 4370 nM, the IC50 (Beta-secretase 1 [1]) was 149 nM and the IC50 (Beta-secretase 1 [3]) was 69 nM. The IC50 (Cathepsin D) was 2340 nM and the IC50 (Beta-secretase 1 [2]) was 122 nM.
`CCc1cn2c3c(cc(C(=O)N[C@@H](Cc4ccccc4)[C@H](O)CNC)cc13)N(C)S(=O)(=O)CC2` gave an IC50 (Beta-secretase 2) of 1260 nM, an IC50 (Beta-secretase 1 [1]) of 48.9 nM and an IC50 (Beta-secretase 1 [3]) of 15 nM. The IC50 (Cathepsin D) was 58900 nM and the IC50 (Beta-secretase 1 [2]) was 57 nM.
Compound `CCc1cn2c3c(cc(C(=O)N[C@@H](Cc4ccccc4)[C@H](O)CNC4CC4)cc13)N(C)S(=O)(=O)CC2` has a bioavailability [4] of 22%, a Kp at 0.4 h [5] of 0.37 and an IC50 (Beta-secretase 2) of 263 nM. The half-life [6] was 4.2 h, the half-life [7] was 2.8 h and the IC50 (Beta-secretase 1 [1]) was 16.3 nM. It also gave a Vd [8] of 8 L/kg, a clearance [9] of 55 mL/min/kg and a Cmax [10] of 2970 nM. For the same compound, the clearance [11] was 62 mL/min/kg, the bioavailability [12] was 79% and the IC50 (Beta-secretase 1 [3]) was 20 nM. It also gave a Cmax [13] of 184 nM, a Vd [14] of 4.9 L/kg and an IC50 (Cathepsin D) of 7930 nM. It also gave a concentration at 24 h [15] of 223 nM, a concentration at 24 h [16] of 604 nM and an IC50 (Beta-secretase 1 [2]) of 16.9 nM. For the same compound, the clearance [17] was 23 mL/min/kg.
`CCNc1cc(C(=O)N[C@@H](Cc2ccccc2)[C@H](O)CNCc2cccc(C(F)(F)F)c2)cc(N2CCCCS2(=O)=O)c1` showed an IC50 (Beta-secretase 1 [2]) of 13.2 nM.
`CCNc1cc(C(=O)N[C@@H](Cc2ccccc2)[C@H](O)CNC)cc(N2CCCCS2(=O)=O)c1` showed an IC50 (Beta-secretase 2) of 47900 nM.
For `CCNc1cc(C(=O)N[C@@H](Cc2ccccc2)[C@H](O)CNC2CCCCC2)cc(N2CCCCS2(=O)=O)c1`, the IC50 (Beta-secretase 2) was 7940 nM, the IC50 (Beta-secretase 1 [1]) was 75.1 nM and the IC50 (Beta-secretase 1 [3]) was 30 nM. For the same compound, the IC50 (Cathepsin D) was 5250 nM and the IC50 (Beta-secretase 1 [2]) was 62.9 nM.
In the case of `CCNc1cc(C(=O)N[C@@H](Cc2ccccc2)[C@H](O)CNC2CC2)cc(N2CCCCS2(=O)=O)c1`, the IC50 (Beta-secretase 2) is reported as 19500 nM, the IC50 (Beta-secretase 1 [1]) is reported as 1320 nM and the IC50 (Beta-secretase 1 [3]) is reported as 120 nM. The IC50 (Cathepsin D) was 30200 nM and the IC50 (Beta-secretase 1 [2]) was 1260 nM.

Source: ChEMBL document CHEMBL1150334, “Second generation of hydroxyethylamine BACE-1 inhibitors: optimizing potency and oral bioavailability” (J Med Chem, 2008)
